Source: patent US20130345073A1, “USE OF ALPHA-2-MACROGLOBULIN FOR DETERMINING OSTEONECROSIS DISEASE STATUS AND FOR SCREENING THERAPEUTIC AGENTS FOR PREVENTING OR TREATING OSTEONECROSIS” (priority 2012, published 2013)
Where two headings read alike, the source gives them in different places.

Tests used:
[1] = system: A2M gene expression in human umbilical vein endothelial cells (HUVEC); assay: A2M gene expression in treated HUVEC cells (qPCR); assay type: cell-based; conditions: for effect on A2M overexpression induced by dexamethasone: combined with dexamethasone, PD98059 20 μM, withaferin 1 μM (FIG. 4D)
Description: HUVECs were purchased from Lonza (Walkersville, Md., USA) and cultured in endothelial basal medium (EBM-2media (Lonza) supplemented with microvascular additives (excluding hydrocortisone): human endothelial growth factor, 5% fetal bovine serum (FBS), vascular endothelial growth factor, human fibroblast growth factor type B, R3 insulin-like growth factor 1, ascorbic acid, heparin and the appropriate antibiotics gentamicin and amphotericin B (as per the supplier's protocol). HUVECs cells were cultured to near confluence (80%), trypsinized and seeded on 6 wells plates (10^5 cells/well). After 24 h incubation, cells were treated with dexamethasone (0.25 to 1 mM, Sigma-Aldrich, St-Louis, Mo., USA) for different time periods (between 4h to 48h). For experiments relating to the signaling pathways, different inhibitors were used: PD98059 (20 μM, Sigma) a MAPK inhibitor; withaferin (1 μM, Tocris, Bristol, UK), an NFkB PI3K inhibitor, and thrombin (1.5 U/ml; Calbiochem, San Diego, Calif., USA) an NFkB agonist. After incubation cells were harvested and RNA extracted using Trisol® (Invitrogen, Burlington, ON, Canada). RNA were then reverse transcribed using high capacity RNA to cDNA kit (Applied biosystems, Carlsbad, Calif., USA). A2M expression levels were then determined by qPCR using Taqman probes and master mix (Applied Biosystems)
First, a dose response curve of HUVEC cells treated 48h using different concentration of Dex (dexamethasone) (0.1 mM to 1 mM) was generated. […] Then, a time response curve (4h to 24h) of HUVEC cells treated with 1 mM dexamethasone was generated. […] The effect of dexamethasone, PD and whitaferin on A2M expression of HUVEC cells was also determined.

[2] = system: Fisher and Wistar Kyoto (WK) rats; conditions: male, rat, in vivo, 5 months
[3] = system: Fisher and Wistar Kyoto (WK) rats; assay: Alpha-2-Macroglobulin (A2M) level in the blood by rat A2M ELISA; assay type: in vivo
Description: Slow-release prednisone pellets (Innovative Research of America, Sarasota Florida, USA) were implanted subcutaneously into 12 Wistar Kyoto rats (all males) and 12 Fisher rats (all males) at the age of 8-12 weeks. Each pellet was implanted underneath the skin on the lateral side of the neck by surgically making an incision and developing a pocket about 2 cm beyond the incision site. The pellet was placed in the pocket and the incision was sutured. Based on the manufacturer's instructions the pellet releases a constant dose of the drug subcutaneously. To maintain a constant dosage during the 6 month period of the experiment, second and third pellet implantations were performed using the same procedure at 2 and 3 months respectively. The average dose release from the pellet was equivalent to 1.5 mg/kg/day for the period of 6 months. The dose of corticosteroids and the duration of treatment were chosen based on clinical experience. For the control group, 6 age-matched Wistar Kyoto (all males) and 6 age-matched Fisher (all males) rats received placebo pellets (Innovative Research of America) introduced through the same surgical technique. All rats were weighed upon their entry into the animal facility and were then weighed on a weekly basis until the end of the experimental period. Serum glucose measurements were performed at 2 week intervals via saphenous venipuncture using a portable glucometer (ContourTM glucometer, Bayer). Furthermore, 1 ml of whole blood was collected from each animal once a month via sublingual venipuncture under general anesthesia following a previously described technique. Following venipuncture, the blood was transferred to standard EDTA tubes, centrifuged for 8 minutes at 3600 rpm and the serum was separated and initially stored at -20° Celsius. Monthly serum […] concentrations were determined using a Rat Alpha 2-Marcoglobulin Enzyme Linked Immunoassay (ELISA) (Kamiya Biomedical Company, Seattle, USA) according to the manufacturer's instructions. This measurement was performed by an author blinded to treatment allocation. Fisher and Wistar Kyoto (WK) rats received steroid/placebo treatment for 5 and 6 months, respectively and blood was collected monthly. The Alpha-2-Macroglobulin […]) level in the blood was detected using rat […] ELISA kit (Immunology Consultants Laboratory, USA). Rats were divided into groups based on the treatment as well as the results from histopathology and TUNEL evaluation. AVN(+) was judged to be either TUNEL (+) or (++), or AVN(-) by histopathology study on at least one hip. […] However, as shown on FIG. 3C, the […] level in the blood of steroid-treated Fisher rats (only those considered AVN(+)) increased at 2 months after steroid treatment, and they were consider AVN(+). […]

Fisher and WK rats = assay: Micro-computerized tomography scanning of femoral head cross-sections; assay type: in vivo, rat
Description: At the conclusion of the 180 day experimental period, all prednisone and placebo animals were euthanized via brief isoflurane exposure followed by cardiac puncture. Immediately following euthanasia, both femurs in each animal were dissected, with care taken to preserve the integrity of the femoral cartilage during hip disarticulation. The femurs were then osteotomized at the mid-diaphysis and the proximal portion was immersed initially in 4% paraformaldehyde for 24 hours, washed with sterile phosphate buffered saline (PBS) for the following 48 hours, and then preserved in PBS at −5° Celsius.
Micro computed-tomography (μCT) scanning was performed on each harvested femur using a Skyscan1172 instrument equipped with a 1.3 Mp camera (Skyscan, Kontich, Belgium). […] 2-dimensional serial cross sections were assembled into 3D reconstructions and analyzed using Skyscan™ software (CTAn version 2.0.0.1) supplied with the instrument. […]
In the present example, an analysis of the epiphyseal trabecular bone adjacent to the subchondral plate was performed. […] This shape permitted the largest area of epiphyseal bone to be measured without artefact from the adjacent rodent growth plate or cortical cap. […]
Four widely utilized morphometric indices measuring bone volume and bone connectivity were measured from the binarized 3-dimensional volume of interest. […] Total bone porosity (TBP) was also measured. […]

Wistar Kyoto rats = conditions: male, rat, in vivo, 6 months
Description: (§1) Experimental animals and their maintenance. Forty Wistar Kyoto (WKY) rats (ages 4 weeks old) were purchased from Charles River Laboratories (Pointe-Claire, QC, Canada). The rats were tagged and housed in plastic cages (2 to 4 animals per cage) under standard laboratory conditions with a 12-hour dark/12-hour light cycle, a constant temperature of 20° C., and humidity of 48%. Food and water were provided ad libitum with a standard rodent diet. The weight of the rats were followed before and after the implant of a prednisone pellet for the first 3 consecutive weeks and then every month until the end of the experiment. All experiments were conducted under an animal protocol approved by the McGill Animal Care Department.
Slow-release prednisone pellets (Innovative Research of America, Sarasota Florida, USA) were implanted subcutaneously into 24 Wistar Kyoto rats (12 males and 12 females rats) at the age of 5 weeks. […]
The rats were sacrificed with an overdose of ketamine/xylazine at the age of 30 weeks. […] Tissue samples were sectioned parasagitally with a rotary microtome at 4 to 5 microns thickness, stained with hematoxylin and eosin and evaluated by light microscopy.
The tissue samples were analyzed in a blinded fashion by two experienced bone pathologists. […]

[4] = system: Fisher and Wistar Kyoto (WK) rats; conditions: rat, in vivo
Description: as §1, with “Eighteen Wistar” for “Experimental animals and their maintenance. Forty Wistar”, “(ages 12-16 weeks old) and eighteen Fisher (ages 12-16” for “(ages 4”
Slow-release prednisone pellets (Innovative Research of America, Sarasota Florida, USA) were implanted subcutaneously into 12 Wistar Kyoto rats (all males) and 12 Fisher rats (all males) at the age of 8-12 weeks. Each pellet was implanted underneath the skin on the lateral side of the neck by surgically making an incision and developing a pocket about 2 cm beyond the incision site. The pellet was placed in the pocket and the incision was sutured. Based on the manufacturer's instructions the pellet releases a constant dose of the drug subcutaneously. To maintain a constant dosage during the 6 month period of the experiment, second and third pellet implantations were performed using the same procedure at 2 and 3 months respectively. The average dose release from the pellet was equivalent to 1.5 mg/kg/day for the period of 6 months. The dose of corticosteroids and the duration of treatment were chosen based on clinical experience. For the control group, 6 age-matched Wistar Kyoto (all males) and 6 age-matched Fisher (all males) rats received placebo pellets (Innovative Research of America) introduced through the same surgical technique.
The rats were sacrificed with an overdose of ketamine/xylazine at the age of 32-36 weeks. Tissue samples were obtained from the proximal femur containing the femoral head. Some samples were put in RNALater™ (QIAGEN Inc., Mississauga, ON, Canada) for RNA extraction and some samples were fixed for histological examination. Bone samples were fixed in 10% neutral buffered formalin, then decalcified in 4% ethylenediamine tetraacetic acid (pH 7.2) (Sigma-Aldrich, St. Louis, Mo., USA). The specimens were processed routinely and embedded in paraffin. Tissue samples were sectioned parasagitally with a rotary microtome at 4 to 5 microns thickness, stained with hematoxylin and eosin and evaluated by light microscopy.
The tissue samples were analyzed in a blinded fashion by two experienced bone pathologists. […] While the development of ON proceeds through various clinically identifiable stages, it was preferable for this study to detect early as well as the late stages of the condition. With this objective in mind, the criteria of Arlet [Arlet, 1993] was adopted namely degeneration, necrosis, and disappearance of marrow cells as well as the nuclear disappearance and hypochromasia of trabecular osteocytes as early signs of ON [Arlet, 1993]. Early signs of ON was also considered when apoptosis occurred in the osteocytes and osteoblasts. Positivity for apoptosis was defined by the authors as more than three osteocytes and/or osteoblasts recognized in a high magnification field based on previous studies [Weinstein et al, 2000; Shibahara et al., 2000].
Terminal dexoynucleotidyl transferase (TdT) mediated deoxyuridine triphosphate biotin nick end labeling (TUNEL) was used to detect fragmented DNA known to be associated with apoptotic cell death. TUNEL assay on paraffin-embedded tissue sections was performed with the DeadEnd™ Colorimetric TUNEL System (Promega, Madison, Wis., USA) as recommended by the manufacturer. […]

How did the “effect on A2M overexpression induced by dexamethasone” value ([1]; HUVEC) turn out when `COc1cccc(-c2cc(=O)c3ccccc3o2)c1N` [PD, PD98059] was run?
Its value is “repression of A2M gene expression”.

`C[C@]12C=CC(=O)C=C1CC[C@@H]1[C@@H]2C(=O)C[C@@]2(C)[C@H]1CC[C@]2(O)C(=O)CO` [Prednisone, prednisone] was tested. Which “Total TUNEL(++) hips” value [2] did it give?
The value was 7.

What about the “Total TUNEL(−) hips” value [2] of the same compound?
The value was 2.

And the “number of hips AVN(+) TUNEL(−)” value [2]?
Its value is 1.

What about the “A2M level in the blood” value ([3]; Fisher rats, 5 months after the beginning of the steroid treatment (FIG. 3E)) of the same compound?
Its value is “declined”.

And the “A2M level in the blood” value ([3]; steroid-treated Fisher rats AVN(+), at 2 months after steroid treatment (FIG. 3C))?
Its value is “increased”.

What about the “time of peak A2M level in the blood after the beginning of the treatment” value ([3]; steroid-treated WK rats, all AVN(+) (FIG. 3D)) of the same compound?
Its value is 3 month.

And the “A2M level in the blood” value ([3]; steroid-treated WK rats, at least 6 months after the beginning of the treatment (FIG. 3E))?
Its value is “remained higher than placebo-treated group”.

And the “micro-CT findings of femoral head” value (Fisher and WK rats; Fisher rats following steroid administration (FIG. 5A))?
The value was “no articular erosion”.

And the “rats with subchondral porosity, small and erratic trabeculae and isotropic trabecular arrangement” value (Fisher and WK rats; steroid-treated WK rats (FIG. 5B))?
The value was 9 out of 12.

What about the “incidence of the disease (ON)” value (Wistar Kyoto rats) of the same compound?
Its value is “up to 75%”.

What about the “Total TUNEL(++) hips” value ([4]; male, Wistar Kyoto, 6 months) of the same compound?
The value was 9.

And the “Total TUNEL(−) hips” value ([4]; male, Wistar Kyoto, 6 months)?
The value was 1.

What about the “number of hips AVN(+) TUNEL(−)” value ([4]; male, Wistar Kyoto, 6 months) of the same compound?
Its value is 1.

What about the “number of hips AVN(−) TUNEL(+)” value ([4]; male, Wistar Kyoto, 6 months) of the same compound?
The value was 1.

And the “number of hips AVN(−) TUNEL(++)” value ([4]; male, Wistar Kyoto, 6 months)?
The value was 2.

And the “apoptosis (TUNEL positive cells) in bilateral femora” value [4]?
The value was “more profound”.

For `CC1=C(CO)C(=O)O[C@@H]([C@@H](C)[C@H]2CC[C@H]3[C@@H]4C[C@H]5O[C@]56[C@@H](O)C=CC(=O)[C@]6(C)[C@H]4CC[C@]23C)C1` [whitaferin, withaferin], which “effect on A2M overexpression induced by dexamethasone” value ([1]; HUVEC) is on record?
Its value is “repression of A2M gene expression”.

What does the source list for `C[C@@H]1C[C@H]2[C@@H]3CCC4=CC(=O)C=C[C@]4(C)[C@@]3(F)[C@@H](O)C[C@]2(C)[C@@]1(O)C(=O)CO` [dexamethasone]?
concentration of maximum effect on A2M expression ([1]; HUVEC treated 48h, dose response 0.1 mM to 1 mM (FIG. 4A)): 0.5 mM; time of maximum effect on A2M expression ([1]; HUVEC, 1 mM dexamethasone, time response 4h to 24h (FIG. 4B)): 24 h
